From patent publication US20200331882A1, “COMPOUND FOR SIMULTANEOUSLY INHIBITING LSD1 AND HDAC TARGETS AND APPLICATION THEREOF” (PEKING UNIVERSITY SHENZHEN GRADUATE SCHOOL, priority 2018, published 2020)

Legend:
Assay in all cases: CellTiter-Glo cell proliferation
Format in all cases: cell-based
143B = conditions: CTG, 72 hours
Experimental: (§1) The effect of the present invention compound ZZY-003 on the cell proliferation of 50 cell lines was evaluated by CellTiter-Glo (CTG) method, and the 50% inhibitory concentration was calculated by detecting the cell viability after treatment with different drug concentrations. The cells were resuscitated and cultured in their respective culture media. The cells in logarithmic growth phase were harvested and the cells were counted by cell counter. The cell viability was detected by Trypan blue exclusion method to ensure that the cell line viability was more than 96%. The cell concentration was adjusted by diluting with the culture medium, and 90 μL cell suspension was added to the 96-well cell plate (including the cell control T0 on the day of drug treatment) to make the cell density reach the specified concentration. The cells in the 96-well plate were cultured overnight at 37° C., 5% CO2 and 95% humidity. 10 μL culture medium was added to the control cell culture plate. CellTiter-Glo reagent and cell culture plate were placed at room temperature to balance for 30 minutes. The same volume of CellTiter-Glo reagent was added to each well. Vibrate on the orbital shaker for 2 min to make the cells fully lytic. The cell culture plate was placed at room temperature to balance for 10 minutes. Chemiluminescence values were read with EnVision. The storage solution was formed by dissolving the tested compound with the corresponding solvent and diluted in gradient to obtain 10 times working concentration solution, and 10 times solution of positive drug was also prepared. 10 μL drug solution was added to each well in the 96-well plate in which the cells were inoculated, and each cell concentration was provided with three duplicate wells. The highest concentration of the tested compound was 10/50 μM, 9 concentrations and 3.16 times dilution. The cells in the 96-well plate added with drug were cultured at 37° C., 5% CO2 and 95% humidity for 72 hours. CellTiter-Glo reagent and drug-treated cell culture plate were placed at room temperature to balance for 30 minutes. The same volume of CellTiter-Glo reagent was added to each well. Vibrate on the orbital shaker for 2 minutes to make the cells fully lytic. The cell culture plate was placed at room temperature to balance for 10 minutes. Chemiluminescence values were read with EnVision. Data processing: […] Cell survival rate (%)=(Lum drug to be detected−Lum culture medium control)/(Lum cell control−Lum culture medium control)×100%; Lum cell control−Lum culture medium control was set to 100%, LumMedium control value was set to 0%;

786-O = conditions: CTG, 72 hours
Experimental: as §1

A549 = conditions: CTG, 72 hours, highest concentration 10/50 μM
Experimental: as §1

B16-F10 = conditions: CTG, 72 hours
Experimental: as §1

DLD-1 = conditions: CTG, 72 hours
Experimental: as §1

H69AR = conditions: CTG, 72 hours
Experimental: as §1

HCT-116 = conditions: CTG, 72 hours
Experimental: as §1

Hep G2 = conditions: CTG, 72 hours
Experimental: as §1

HuCCT1 = conditions: CTG, 72 hours
Experimental: as §1

JVM-3 = conditions: CTG, 72 hours
Experimental: as §1

K-562 = conditions: CTG, 72 hours
Experimental: as §1

LN-229 = conditions: CTG, 72 hours
Experimental: as §1

MCF 10A = conditions: CTG, 72 hours
Experimental: as §1

MCF7 = conditions: CTG, 72 hours, highest concentration 10/50 μM
Experimental: as §1

MDA-MB-231 = conditions: CTG, 72 hours, highest concentration 10/50 μM
Experimental: as §1

NCI-H1299 = conditions: CTG, 72 hours
Experimental: as §1

NCI-H1417 = conditions: CTG, 72 hours
Experimental: as §1

OE19 = conditions: CTG, 72 hours
Experimental: as §1

PANC-1 = conditions: CTG, 72 hours
Experimental: as §1

SF268 = conditions: CTG, 72 hours
Experimental: as §1

SU-DHL-6 = conditions: CTG, 72 hours
Experimental: as §1

In the case of `N.N.[Cl][Pt][Cl]` [Cisplatin, reference compound], the “% inhibition at top conc.” value (143B; highest concentration 10/50 μM) is reported as 99.94%, the IC50 (143B; read-out: Absolute IC50) is reported as 1.15 µM and the “% inhibition at top conc.” value (786-O; highest concentration 10/50 μM) is reported as 97.88%. For the same compound, the IC50 (786-O; read-out: Absolute IC50) was 2.11 µM, the “% inhibition at top conc.” value (A549) was 96.72% and the “% inhibition at top conc.” value (B16-F10; highest concentration 10/50 μM) was 99.97%. For the same compound, the IC50 (B16-F10; read-out: Absolute IC50) was 4.53 µM, the “% inhibition at top conc.” value (DLD-1; highest concentration 10/50 μM) was 98.93% and the IC50 (DLD-1; read-out: Absolute IC50) was 5.3 µM. For the same compound, the “% inhibition at top conc.” value (H69AR; highest concentration 10/50 μM) was 94.93%, the IC50 (H69AR; read-out: Absolute IC50) was 5.65 µM and the “% inhibition at top conc.” value (HCT-116; highest concentration 10/50 μM) was 95.72%. For the same compound, the IC50 (HCT-116; read-out: Absolute IC50) was 3.15 µM, the “% inhibition at top conc.” value (Hep G2; highest concentration 10/50 μM) was 90.70% and the IC50 (Hep G2; read-out: Absolute IC50) was 5.86 µM. For the same compound, the “% inhibition at top conc.” value (HuCCT1; highest concentration 10/50 μM) was 89.54%, the IC50 (HuCCT1; read-out: Absolute IC50) was 11.3 µM and the “% inhibition at top conc.” value (JVM-3; highest concentration 10/50 μM) was 99.71%. For the same compound, the IC50 (JVM-3; read-out: Absolute IC50) was 0.7 µM, the “% inhibition at top conc.” value (K-562; highest concentration 10/50 μM) was 97.45% and the IC50 (K-562; read-out: Absolute IC50) was 6.07 µM. For the same compound, the “% inhibition at top conc.” value (LN-229; highest concentration 10/50 μM) was 97.32%, the IC50 (LN-229; read-out: Absolute IC50) was 11.8 µM and the “% inhibition at top conc.” value (MCF 10A; highest concentration 10/50 μM) was 99.51%. The IC50 (MCF 10A; read-out: Absolute IC50) was 13.2 µM, the “% inhibition at top conc.” value (MCF7) was 90.30% and the “% inhibition at top conc.” value (MDA-MB-231) was 85.71%. The “% inhibition at top conc.” value (NCI-H1299; highest concentration 10/50 μM) was 98.91%, the IC50 (NCI-H1299; read-out: Absolute IC50) was 3.69 µM and the “% inhibition at top conc.” value (NCI-H1417; highest concentration 10/50 μM) was 81.11%. The IC50 (NCI-H1417; read-out: Absolute IC50) was 4.4 µM, the “% inhibition at top conc.” value (OE19; highest concentration 10/50 μM) was 62.99% and the IC50 (OE19; read-out: Absolute IC50) was 25.8 µM. For the same compound, the “% inhibition at top conc.” value (PANC-1; highest concentration 10/50 μM) was 94.45%, the IC50 (PANC-1; read-out: Absolute IC50) was 8.67 µM and the “% inhibition at top conc.” value (SF268; highest concentration 10/50 μM) was 97.98%. The IC50 (SF268; read-out: Absolute IC50) was 2.87 µM, the “% inhibition at top conc.” value (SU-DHL-6; highest concentration 10/50 μM) was 99.95% and the IC50 (SU-DHL-6; read-out: Absolute IC50) was 5.65 µM.
